Experimental data from patent US20230285570A1, “THERAPEUTICALLY USEFUL CURE-PRO MOLECULES FOR E3 LIGASE MEDIATED DEGRADATION OF PROTEINS, AND METHODS OF MAKING AND USING THEM” (CORNELL UNIVERSITY, priority 2020, published 2023).
“Also recorded” adds a separate entry of the source. Each block holds one compound with its values, some of them ahead of it.

Columns and labels:
Format in all cases: cell-based
Namalwa cells = assay: CellTiter-Glo cell viability, Namalwa cells; settings: co-dosed 1:1 with CRBN ligand 8047, Namalwa, 72 h, 10 nM-10 μM
Description: CellTiter-Glo® 2.0 Cell Viability Assay (Promega) was carried out following the manufacturer's recommendations. Cells were seeded at a density of 1000 cells/well in a white 96 well plates (Corning, #3917) in a total volume of 100 μl with respective monomers, combinations of BRD ligands together with E3 ligase ligands or vehicle control treatment. After a 72 h incubation, 100 ul of the CellTiter-Glo® substrate was added per well and luminescence was read on a Spectramax M5 (Molecular Devices). Dose-response curves were generated using Graphpad Prism software.
Namalwa cells (1×10^4) were treated for 72 hours with the compounds solubilized in DMSO. Compounds were added at 10 nM-10 μM each. Cellular viability was determined using the CellTiter-Glo® Luminescent Cell Viability Assay (Promega) described above. FIG. 56 depicts the CURE-PRO-mediated loss of cellular viability for the BRD-E72 monomer (JQ1 derivatives comprising of boronic acid linkers), and the CRBN ligand, 8047 (a pomalidomide derivative comprising diol linkers) combined in a 1:1 ratio.

caspase 3/7 = assay: Caspase-Glo 3/7 assay, Namalwa cells; settings: 1:1 with CRBN ligand 8047, Namalwa, 24 h
Description: Caspase-glo® assay (Promega) was conducted following the manufacturer's recommendations. Cells were seeded at a density of 5000 cells/well in a white 96 well plates (Corning, #3917) in a total volume of 100 μl with respective monomers, combinations of BRD ligands together with E3 ligase ligands or vehicle control treatment. After a 24 h incubation, 100 μl of the […] substrate was added per well and luminescence was read on a Spectramax M5 (Molecular Devices).
Namalwa cells (5×10^4) were treated for 24 hours with the compounds solubilized in DMSO. FIG. 57 is a bar graph depiction of fold increase of apoptosis assessed via caspase 3/7 activity using the Caspase-Glo assay (Promega) described above.
Molm-13 (FIG. 76A) or Namalwa (FIG. 76B) cells (5×10^4) were treated for 24 hours with the compounds solubilized in DMSO in white 96 well plates (10 nM-10 μM solubilized in DMSO). FIG. 76 is a bar graph depiction of fold increase of apoptosis assessed via caspase 3/7 activity using the Caspase-Glo assay (Promega) described above.

BRD4 [1] = molecular target: T1, BRD4 (Homo sapiens, UniProt O60885); assay: Summary of BRD4 degradation by CURE-PRO pairs, estimated from Western Blot or WES; set-up: endogenous in cells; settings: Table 1, aryl-boronic acid BRD4 ligand + 8047
In short: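 Degradation read-out from immunoblot with ECL, or WES capillary electrophoresis with HRP detection, of RIPA lysates. Cells (Namalwa, Ramos, HeLa, MCF7, HT29 or HCT116) were exposed to DMSO-solubilized compounds for 24 h; a check mark marks 30% to 70% or higher degradation.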

BRD4 [2] = molecular target: T1, BRD4; assay: CURE-PRO-mediated BRD4 degradation in HeLa cells, Western blot; set-up: endogenous in cells; host or cells: HeLa; settings: 24 h
In short: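 HeLa cells (2.5×10^6) treated 24 h with DMSO-solubilized compounds, degrader pairs combined 1:1, at 1 nM-1 μM, 1-10 μM, 10 μM or 10 and 100 μM each depending on series. RIPA lysates (10-20 μg protein) run on SDS-PAGE and immunoblotted for BRD4 with ECL detection.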

BRD4 [3] = molecular target: T1, BRD4; assay: CURE-PRO-mediated BRD4 degradation in HeLa cells, WES capillary electrophoresis (ProteinSimple); set-up: endogenous in cells; host or cells: HeLa
Description: All cell lines were purchased from ATCC or DSMZ and grown at 37° C. with 5% CO2. Human HeLa cells were cultured in complete growth medium (Dulbecco's modified Eagle's medium (DMEM) supplemented with 10% FBS); MCF7 cells were cultured in complete growth medium (Dulbecco's modified Eagle's medium (DMEM) supplemented with 10% FBS and 0.01 mg/ml human recombinant insulin (Sigma Aldrich); Namalwa and Ramos cells were cultured in complete growth medium (RPMI 1640 medium supplemented with 10% FBS); HCT116 and HT29 cells were cultured in complete growth medium (McCoy's 5a Medium supplemented with 10% FBS). For cellular degradation of BRD4 studies cells were seeded in a 12-well plate at 70-80% confluency, allowed to attach overnight, and incubated with the indicated compounds for the indicated time. When indicated, a 15-minute pretreatment with 10 μM pomalidomide, 10 μM VHL298, 10 μM Nutlin3a, 1 μM MG-132 or 1 μM Carfilzomib was performed before the addition of CURE-PROs. For washout studies, after CURE-PRO treatment, media was aspirated and incubated with complete medium for the indicated time before lysis.
WES Simple analysis was performed on WES system (ProteinSimple-Biotechne) according to the manufacturer's instructions. Total protein concentrations of cell lysates were determined by the Pierce BCA kit (Thermo Fisher). 3 μL of 0.3 μg/μL of the protein lysate was loaded onto a 12- to 230-kDa WES assay plate (ProteinSimple) where 300 nL sample was withdrawn through a capillary, subjected to electrophoretic separation of proteins by size, and followed by the simultaneous, HRP-based detection of proteins using the Anti-Rabbit Detection Module (Proteinsimple: #DM-001). The electropherograms were checked then the automatic peak detection was manually corrected if it was required.
HeLa cells (2.5×10^6) were treated for 4-24 hours with the compounds solubilized in DMSO. After 4 hours, indicated points were washed and cells were left in full growth media. Compounds were added at 10 μM each. Standardized protein samples were electrophoresed and imaged as described in the WES ProteinSimple section above. FIGS. 44 and 45 depict the time-dependence of CURE-PRO-mediated BRD4 degradation with the BRD-E52 ligand (FIG. 44) and BRD-E72 ligand (FIG. 45), both JQ1 derivatives comprising of boronic acid linkers, and the CRBN binding ligands (8046, 8047, and 8066), pomalidomide derivatives comprising diol linkers.
HeLa cells (2.5×10^6) were treated for 24 hours with the compounds solubilized in DMSO. Compounds were added at 100 nM-10 μM each. Standardized protein samples were electrophoresed and imaged as described in the WES ProteinSimple section above. FIG. 46 depicts the concentration-dependence of CURE-PRO-mediated BRD4 degradation and the requirement for monomer dimerization.

CRBN = molecular target: T2, CRBN (Homo sapiens, UniProt Q96SW2); assay: CURE-PRO-mediated CRBN degradation in HeLa cells, Western blot; settings: 24 h
T2 construct: endogenous in cells; host or cells: HeLa
T2 sequence (Q96SW2 whole entry): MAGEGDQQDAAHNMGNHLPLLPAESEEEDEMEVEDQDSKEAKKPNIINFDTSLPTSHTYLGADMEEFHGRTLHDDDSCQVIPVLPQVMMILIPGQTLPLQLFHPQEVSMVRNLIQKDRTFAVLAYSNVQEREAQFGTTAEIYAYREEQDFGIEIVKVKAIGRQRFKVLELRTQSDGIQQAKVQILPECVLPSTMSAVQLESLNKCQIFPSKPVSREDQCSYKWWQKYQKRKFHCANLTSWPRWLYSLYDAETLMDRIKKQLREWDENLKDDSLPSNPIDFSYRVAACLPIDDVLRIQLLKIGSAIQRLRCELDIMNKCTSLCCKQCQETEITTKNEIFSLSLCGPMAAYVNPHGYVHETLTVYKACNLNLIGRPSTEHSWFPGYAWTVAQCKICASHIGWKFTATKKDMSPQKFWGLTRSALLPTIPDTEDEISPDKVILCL
Description: Namalwa, Ramosm HeLa, MCF7, or HT29 HCT116 cells (2.5-3×10^6) were treated for 24 hours with the indicated compounds solubilized in DMSO. The cells were washed in ice-cold PBS and were then lysed in RIPA lysis buffer (150 mM NaCl, 5 mM EDTA, 1% NP-40, 0.5% sodium deoxycholate, 0.1% SDS, 50 mM Tris, pH 8.0.) with Roche protease inhibitor complete cocktail and phosphatase inhibitors (10 mM sodium fluoride, 10 mM sodium pyrophosphate, 1 mM sodium orthovanadate and 20 mM β-glycerophosphate). The total protein concentrations were determined by Bradford Protein Assay (Pierce) and 10-20 μg of protein was loaded onto 4-15% Tris-Glycine gradient gels (Biorad). After standard gel electrophoresis, the separated proteins were transferred to PVDF membrane by wet transfer. The immunoblots were then blocked for 1 hour in 5% skim milk in TBST or 5% BSA in TBST, according to manufacturer's instructions, before an overnight incubation at 4° C. with indicated antibodies and membranes. […] Signal was detected with ECL Western Blotting Substrate (Pierce) and X-ray film processed with a Konica SRX-101 X-ray film processor or captured by Bio-Rad's Chemidoc Imaging system. […]

HCT116 cells = assay: MTT toxicity of E3 ligase CURE-PRO monomers, HCT116 cells; settings: monomer alone, HCT116, 10 nM-30 μM, 24 h
Description: (§1) CURE-PRO ligands for the E3 ubiquitin ligases were assessed for toxicity by MTT assays as described above. CURE-PRO monomers (10 nM-30 μM) were solubilized in DMSO and added in triplicate to cells (1×10^5 cells/well) seeded in 96 well plates on the previous day. HCT116 (FIG. 105A), MCF7 (FIG. 105B), and HT29 cells (FIG. 105C) were treated with the CURE-PRO monomers for 24 h.

HT29 cells = assay: MTT toxicity of E3 ligase CURE-PRO monomers, HT29 cells; settings: monomer alone, HT29, 10 nM-30 μM, 24 h
Description: as §1

SMILES: CCNC(=O)C[C@@H]1N=C(c2ccc(Cl)cc2)c2cc(-c3cccc(B(O)O)c3)ccc2-n2c(C)nnc21 [BRD-E72, (3-((4S)-6-(4-chlorophenyl)-4-(2-(ethylamino)-2-oxoethyl)-1-methyl-4H-benzo[f][1,2,4]triazolo[4,3-a][1,4]diazepin-8-yl)phenyl)boronic acid]
loss of cellular viability versus monomer alone (Namalwa cells): an increase in the loss of viability compared to monomer treatment alone; also recorded: marked loss in cell viability
caspase 3/7 activation (caspase 3/7): demonstrates activation of caspase 3/7; also recorded: marked caspase activation
Degradation of BRD4, combination with CRBN ligand 8047 (BRD4 [1]): √ (A black check mark indicates efficacy of 30% to 70% or higher protein degradation)
BRD4 degradation after pomalidomide preincubation (BRD4 [2]; 1:1 with 8047, 10 μM, pomalidomide preincubated 15 min at equimolar concentration): inhibition of CURE-PRO-mediated BRD4 degradation
BRD4 degradation (BRD4 [2]; BRD ligand with pomalidomide (no 8047), HeLa, 10 μM): failed to induce BRD4 degradation
BRD4 degradation (BRD4 [2]; co-treated 1:1 with CRBN ligand 8047, HeLa, 10 μM each): CURE-PRO-mediated degradation of BRD4
sustained BRD4 degradation after drugs are washed out (BRD4 [3]; co-dosed with 8047, 10 μM each, washed after 4 h): up to 8 h
BRD4 degradation, time course (BRD4 [3]; co-dosed with CRBN ligand 8047, HeLa, 10 μM each, 4-24 h): marked BRD4 degradation after 4 h

concentrations at which CRBN degradation is noted (CRBN): 10 to 100 µM
SMILES: CC(C)(O)C(=O)C(=O)NCc1cccc2c1C(=O)N(C1CCC(=O)NC1=O)C2=O (centres unmarked) [compound 8065]

SMILES: COc1ccc(C2=N[C@@H](c3ccc(Cl)cc3)[C@@H](c3ccc(Cl)cc3)N2C(=O)N2CCN(CCNC(=O)c3cccc(B(O)O)c3)C(=O)C2)c(OC(C)C)c1 [compound 8312, (3-((2-(4-((4S,5R)-4,5-bis(4-chlorophenyl)-2-(2-isopropoxy-4-methoxyphenyl)-4,5-dihydro-1H-imidazole-1-carbonyl)-2-oxopiperazin-1-yl)ethyl)carbamoyl)phenyl)boronic acid]
loss of viability (MTT) (HCT116 cells): loss of viability only noted at higher concentrations (30 μM); also recorded: Toxicity at higher concentrations
loss of viability (MTT) (HT29 cells): loss of viability only noted at higher concentrations (30 μM); also recorded: Toxicity at higher concentrations
